Literature values, collected in patent US20030073826A1 (priority 2001, published 2003).

System: bacteria
Conditions: U.S. Pat. No. 3,496,163, Example 2

SMILES: CCC[C@@H]1C[C@@H](C(=O)NC(C(C)Cl)C2OC(SC)C(O)C(O)C2O)N(C)C1 (stereo partly shown) [clindamycin free base]
- antibacterial spectrum compared with the hydrochloride salt of clindamycin: same scope and magnitude
